In ChEMBL document CHEMBL5303304, “EUbOPEN Chemogenomics Library - IncuCyte” (2023):

Experiments:
Format in all cases: toxicity, cell-based
U2OS = assay: Incucyte cell viability with U2OS; conditions: human, 10 µM, compound concentration 10 uM
HEK-293T = assay: Incucyte cell viability with HEK293T; conditions: human, 10 µM, compound concentration 10 uM
Fibroblast = assay: Incucyte cell viability with human fibroblast; conditions: 10 µM, compound concentration 10 uM
Also: unitless GR value; below 1 slowed growth and below 0 cell loss.

Compound	Growth Rate (U2OS; 12 h, replicate number 2)	Growth Rate (U2OS; 18 h, replicate number 2)	Growth Rate (U2OS; 24 h, replicate number 2)	Growth Rate (HEK-293T; 0 h, replicate number 2)	Growth Rate (U2OS; 0 h, replicate number 1)	Growth Rate (U2OS; 0 h, replicate number 2)	Growth Rate (U2OS; 6 h, replicate number 2)	Growth Rate (U2OS; 24 h, replicate number 1)	Growth Rate (Fibroblast; 6 h, replicate number 2)	Growth Rate (Fibroblast; 12 h, replicate number 2)	Growth Rate (Fibroblast; 24 h, replicate number 1)	Growth Rate (U2OS; 6 h, replicate number 1)	Growth Rate (U2OS; 12 h, replicate number 1)	other results
CNc1oc(-c2cccc3ccccc23)nc1C#N	0.93	0.92	0.99	-0.92										
COc1cc(Nc2cnc(C#N)c(O[C@H](C)CN(C)C)n2)ncc1-c1cnn(C)c1	0.82	0.67	0.43	-0.51	-1	0.66	0.42							Growth Rate (HEK-293T; 0 h, replicate number 1): -1; Growth Rate (HEK-293T; 6 h, replicate number 1): 0.63; Growth Rate (HEK-293T; 6 h, replicate number 2): -0.18; Growth Rate (HEK-293T; 12 h, replicate number 1): -0.1; Growth Rate (HEK-293T; 12 h, replicate number 2): -0.4; Growth Rate (HEK-293T; 18 h, replicate number 1): -0.17; Growth Rate (HEK-293T; 18 h, replicate number 2): -0.32; Growth Rate (HEK-293T; 24 h, replicate number 1): -0.06; Growth Rate (HEK-293T; 24 h, replicate number 2): -0.22
O=C(O)c1cccc(C2=C(c3cc(Cl)ccc3OCc3ccc(F)cc3F)CCC2)n1	1													Growth Rate (HEK-293T; 0 h, replicate number 1): 0.79
CC(C)N(CCCCOCC(=O)O)c1cnc(-c2ccccc2)c(-c2ccccc2)n1			0.99											Growth Rate (Fibroblast; 0 h, replicate number 2): -0.09
N#C/C(=C\c1ccc(O)c(O)c1)C(=O)OCCc1cccs1	0.63	0.94	0.93			0.41		0.8	-0.28	0.78	0.86			Growth Rate (Fibroblast; 18 h, replicate number 1): 1; Growth Rate (Fibroblast; 18 h, replicate number 2): 0.58; Growth Rate (Fibroblast; 24 h, replicate number 2): 0.54
CC(C)(O)[C@H](F)CN1Cc2cc(NC(=O)c3cnn4cccnc34)c(N3CCOCC3)cc2C1=O	0.95	0.95	0.93	0.15	-0.84									Growth Rate (HEK-293T; 6 h, replicate number 1): 0.89; Growth Rate (HEK-293T; 6 h, replicate number 2): 0.72; Growth Rate (HEK-293T; 12 h, replicate number 1): 1; Growth Rate (HEK-293T; 12 h, replicate number 2): 0.86; Growth Rate (HEK-293T; 18 h, replicate number 2): 0.82; Growth Rate (HEK-293T; 24 h, replicate number 1): 0.96; Growth Rate (HEK-293T; 24 h, replicate number 2): 0.85
Cl.Cl.Nc1nccc(-c2c(-c3ccc(F)cc3)ncn2C2CCCCC2)n1		0.84	0.81	0.73				0.95				0.19	0.8	Growth Rate (U2OS; 18 h, replicate number 1): 0.93; Growth Rate (HEK-293T; 6 h, replicate number 1): 0.63; Growth Rate (HEK-293T; 6 h, replicate number 2): 0.51; Growth Rate (HEK-293T; 12 h, replicate number 1): 0.99; Growth Rate (HEK-293T; 12 h, replicate number 2): 0.49; Growth Rate (HEK-293T; 18 h, replicate number 1): 0.99; Growth Rate (HEK-293T; 18 h, replicate number 2): 0.44; Growth Rate (HEK-293T; 24 h, replicate number 1): 0.95; Growth Rate (HEK-293T; 24 h, replicate number 2): 0.51
Cc1cc(Cn2c(N3CC4(CNC4)C3)nc3cc(Cl)cc(N4CCN(C)CC4)c32)cc(C)c1F	0.82	0.98	0.96		-0.3	-0.61	0.64	0.83	-0.44	0.21	0.06	0.43	0.79	Growth Rate (U2OS; 18 h, replicate number 1): 0.95; Growth Rate (Fibroblast; 0 h, replicate number 1): -1; Growth Rate (Fibroblast; 0 h, replicate number 2): -0.8; Growth Rate (Fibroblast; 6 h, replicate number 1): -0.09; Growth Rate (Fibroblast; 12 h, replicate number 1): -0.09; Growth Rate (Fibroblast; 18 h, replicate number 1): 0; Growth Rate (Fibroblast; 18 h, replicate number 2): 0.16; Growth Rate (Fibroblast; 24 h, replicate number 2): 0.36
CCN1C(=O)C(c2cccc(C(=O)O)c2)C(=O)N(c2ccccc2)c2cc(C(F)(F)F)ccc21 (stereo not drawn)	0.94	0.95			0.96	0.93	0.97	0.88	-0.94	0.41	0.95	0.49	0.8	Growth Rate (Fibroblast; 0 h, replicate number 1): -1; Growth Rate (Fibroblast; 0 h, replicate number 2): 0.93; Growth Rate (Fibroblast; 6 h, replicate number 1): 0.7; Growth Rate (Fibroblast; 12 h, replicate number 1): 0.85; Growth Rate (Fibroblast; 18 h, replicate number 1): 0.92; Growth Rate (Fibroblast; 18 h, replicate number 2): 0.96
COc1cc(C)c(S(=O)(=O)N(C)CCC(=O)N[C@H]2CC[C@@H](N3CCC4CN(C)CC4C3)CC2)c(C)c1.Cl.Cl (stereo partly drawn)	0.88	0.99					0.87					0.78	0.97	Growth Rate (Fibroblast; 0 h, replicate number 2): -0.7; Growth Rate (Fibroblast; 6 h, replicate number 1): 0.39
O=C(Nc1cc2cc[nH]c(=O)c2cc1Cl)[C@H]1CNC[C@@H]1c1cccnc1.O=C(O)C(F)(F)F														Growth Rate (HEK-293T; 0 h, replicate number 1): -0.73
CS(C)(=O)=Nc1ccc(-c2ccc(-c3nc4[nH]c(O[C@@H]5CO[C@H]6[C@@H]5OC[C@H]6O)nc4cc3Cl)cc2)cc1	0.92	0.97	0.98		0.01		0.94	0.77			0.75	0.36	0.65	Growth Rate (U2OS; 18 h, replicate number 1): 0.82
Cc1nc2cccnc2n2c(-c3cc([C@@]4(O)CCCOC4)ccc3Cl)nnc12	0.83	0.96							-0.24	0.67	0.81			Growth Rate (Fibroblast; 6 h, replicate number 1): 0.39; Growth Rate (Fibroblast; 18 h, replicate number 1): 0.97; Growth Rate (Fibroblast; 18 h, replicate number 2): 0.74; Growth Rate (Fibroblast; 24 h, replicate number 2): 0.88
COc1cc(-c2cc3ncccc3c(O[C@@H](C)[C@H]3CNC(=O)C3)n2)cc(OC)c1OC										0.62		0.94		
Cc1cnc(Nc2ccc(C(=O)N3CCN(C)CC3)cc2)nc1N[C@@H]1CCC[C@@H]1C(N)=O	0.38	0.45	0.52		0.86	0.22	-0.77	0.34	0.31	-0.08	0.96	0.41	0.4	Growth Rate (U2OS; 18 h, replicate number 1): 0.31; Growth Rate (Fibroblast; 12 h, replicate number 1): 0.62; Growth Rate (Fibroblast; 18 h, replicate number 2): 0.56; Growth Rate (Fibroblast; 24 h, replicate number 2): 0.61
Cl.Clc1cc2cc(c1)-c1cnn3ccc(nc13)NCCOCCO2	0.85		0.92		-0.1	0.65	0.72	0.93	-0.68		-0.13		0.99	Growth Rate (Fibroblast; 6 h, replicate number 1): 0.79; Growth Rate (Fibroblast; 12 h, replicate number 1): -1; Growth Rate (Fibroblast; 18 h, replicate number 1): 0.22
CC#CCC(C)[C@H](O)/C=C/[C@@H]1[C@H]2C/C(=C/CCCC(=O)O)C[C@H]2C[C@H]1O (stereo partly drawn) [ILOPROST]				0.38				0.86						Growth Rate (HEK-293T; 0 h, replicate number 1): 0.66
COc1nc2ccc([C@@](O)(c3ccc(Cl)cc3)c3cncn3C)cc2c(Cl)c1Cc1ccc(-n2cccn2)cc1 [JNJ-53721590]				-1	-1							-0.25		Growth Rate (HEK-293T; 0 h, replicate number 1): -0.99
